Test results from the NIST ThermoML archive (doi:10.1021/je060179e).
Numbers after ± are expanded uncertainties.

Assay: xn = mol fraction of the nth substance listed
Conditions: for mass density: 101 kPa, Liquid

In the case of `CCCCCCCCO` [octan-1-ol] + CCCCCCC, the surface tension liquid-gas (288.15 K, x2 = 0.0516) is reported as 26.75 ± 0.31 mN/m, the surface tension liquid-gas (288.15 K, x2 = 0.0995) is reported as 26.18 ± 0.3 mN/m and the surface tension liquid-gas (288.15 K, x2 = 0.1845) is reported as 25.05 ± 0.3 mN/m. It also gave a surface tension liquid-gas (288.15 K, x2 = 0.3346) of 23.74 ± 0.29 mN/m, a surface tension liquid-gas (288.15 K, x2 = 0.4142) of 23.12 ± 0.29 mN/m and a surface tension liquid-gas (288.15 K, x2 = 0.5034) of 22.6 ± 0.28 mN/m. For the same molecule, the surface tension liquid-gas (288.15 K, x2 = 0.6074) was 22.16 ± 0.28 mN/m, the surface tension liquid-gas (288.15 K, x2 = 0.6639) was 21.9 ± 0.28 mN/m and the surface tension liquid-gas (288.15 K, x2 = 0.8325) was 21.24 ± 0.28 mN/m. The surface tension liquid-gas (288.15 K, x2 = 0.9105) was 20.94 ± 0.27 mN/m, the surface tension liquid-gas (288.15 K, x2 = 0.9561) was 20.87 ± 0.27 mN/m and the mass density (288.15 K, x2 = 0.0514) was 822.18 ± 0.45 kg/m3. It also gave a mass density (288.15 K, x2 = 0.1001) of 816.02 ± 0.46 kg/m3, a mass density (288.15 K, x2 = 0.2015) of 802.93 ± 0.48 kg/m3 and a mass density (288.15 K, x2 = 0.3082) of 788.6 ± 0.5 kg/m3. For the same molecule, the mass density (288.15 K, x2 = 0.4054) was 775.17 ± 0.52 kg/m3, the mass density (288.15 K, x2 = 0.517) was 759.5 ± 0.54 kg/m3 and the mass density (288.15 K, x2 = 0.6305) was 743.28 ± 0.56 kg/m3. The mass density (288.15 K, x2 = 0.7114) was 731.48 ± 0.58 kg/m3, the mass density (288.15 K, x2 = 0.8136) was 716.21 ± 0.6 kg/m3 and the mass density (288.15 K, x2 = 0.9061) was 702.2 ± 0.62 kg/m3. It also gave a mass density (288.15 K, x2 = 0.9518) of 695.28 ± 0.63 kg/m3, a surface tension liquid-gas (293.15 K, x2 = 0.0564) of 26.14 ± 0.3 mN/m and a surface tension liquid-gas (293.15 K, x2 = 0.1057) of 25.54 ± 0.3 mN/m. The surface tension liquid-gas (293.15 K, x2 = 0.2084) was 24.34 ± 0.29 mN/m, the surface tension liquid-gas (293.15 K, x2 = 0.3112) was 23.38 ± 0.29 mN/m and the surface tension liquid-gas (293.15 K, x2 = 0.4066) was 22.59 ± 0.28 mN/m. The surface tension liquid-gas (293.15 K, x2 = 0.5114) was 21.96 ± 0.28 mN/m, the surface tension liquid-gas (293.15 K, x2 = 0.6092) was 21.52 ± 0.28 mN/m and the surface tension liquid-gas (293.15 K, x2 = 0.7164) was 20.99 ± 0.27 mN/m. It also gave a surface tension liquid-gas (293.15 K, x2 = 0.8124) of 20.62 ± 0.27 mN/m, a surface tension liquid-gas (293.15 K, x2 = 0.8965) of 20.48 ± 0.27 mN/m and a surface tension liquid-gas (293.15 K, x2 = 0.9573) of 20.26 ± 0.27 mN/m. For the same molecule, the mass density (293.15 K, x2 = 0.0514) was 818.71 ± 0.46 kg/m3, the mass density (293.15 K, x2 = 0.1001) was 812.51 ± 0.47 kg/m3 and the mass density (293.15 K, x2 = 0.2015) was 799.33 ± 0.48 kg/m3. For the same molecule, the mass density (293.15 K, x2 = 0.3082) was 784.92 ± 0.5 kg/m3, the mass density (293.15 K, x2 = 0.4054) was 771.41 ± 0.52 kg/m3 and the mass density (293.15 K, x2 = 0.517) was 755.65 ± 0.54 kg/m3. The mass density (293.15 K, x2 = 0.6305) was 739.34 ± 0.56 kg/m3, the mass density (293.15 K, x2 = 0.7114) was 727.47 ± 0.58 kg/m3 and the mass density (293.15 K, x2 = 0.8136) was 712.11 ± 0.6 kg/m3. The mass density (293.15 K, x2 = 0.9061) was 698.04 ± 0.62 kg/m3, the mass density (293.15 K, x2 = 0.9518) was 691.08 ± 0.63 kg/m3 and the surface tension liquid-gas (298.15 K, x2 = 0.0541) was 25.64 ± 0.3 mN/m. It also gave a surface tension liquid-gas (298.15 K, x2 = 0.1083) of 25.03 ± 0.3 mN/m, a surface tension liquid-gas (298.15 K, x2 = 0.2004) of 23.91 ± 0.29 mN/m and a surface tension liquid-gas (298.15 K, x2 = 0.3137) of 22.82 ± 0.28 mN/m. The surface tension liquid-gas (298.15 K, x2 = 0.405) was 22.09 ± 0.28 mN/m, the surface tension liquid-gas (298.15 K, x2 = 0.5089) was 21.44 ± 0.28 mN/m and the surface tension liquid-gas (298.15 K, x2 = 0.6085) was 20.94 ± 0.27 mN/m. For the same molecule, the surface tension liquid-gas (298.15 K, x2 = 0.7107) was 20.46 ± 0.27 mN/m, the surface tension liquid-gas (298.15 K, x2 = 0.8072) was 20.15 ± 0.27 mN/m and the surface tension liquid-gas (298.15 K, x2 = 0.9071) was 19.82 ± 0.27 mN/m. The surface tension liquid-gas (298.15 K, x2 = 0.9536) was 19.64 ± 0.27 mN/m, the mass density (298.15 K, x2 = 0.0514) was 815.21 ± 0.46 kg/m3 and the mass density (298.15 K, x2 = 0.1001) was 808.98 ± 0.47 kg/m3. The mass density (298.15 K, x2 = 0.2015) was 795.72 ± 0.49 kg/m3, the mass density (298.15 K, x2 = 0.3082) was 781.22 ± 0.51 kg/m3 and the mass density (298.15 K, x2 = 0.4054) was 767.63 ± 0.53 kg/m3. It also gave a mass density (298.15 K, x2 = 0.517) of 751.77 ± 0.55 kg/m3, a mass density (298.15 K, x2 = 0.6305) of 735.37 ± 0.57 kg/m3 and a mass density (298.15 K, x2 = 0.7114) of 723.44 ± 0.59 kg/m3. It also gave a mass density (298.15 K, x2 = 0.8136) of 707.99 ± 0.61 kg/m3, a mass density (298.15 K, x2 = 0.9061) of 693.84 ± 0.63 kg/m3 and a mass density (298.15 K, x2 = 0.9518) of 686.85 ± 0.64 kg/m3. It also gave a surface tension liquid-gas (303.15 K, x2 = 0.0504) of 25.18 ± 0.3 mN/m, a surface tension liquid-gas (303.15 K, x2 = 0.1033) of 24.57 ± 0.29 mN/m and a surface tension liquid-gas (303.15 K, x2 = 0.2052) of 23.46 ± 0.29 mN/m. For the same molecule, the surface tension liquid-gas (303.15 K, x2 = 0.3108) was 22.37 ± 0.28 mN/m, the surface tension liquid-gas (303.15 K, x2 = 0.4134) was 21.56 ± 0.28 mN/m and the surface tension liquid-gas (303.15 K, x2 = 0.5153) was 20.94 ± 0.27 mN/m. It also gave a surface tension liquid-gas (303.15 K, x2 = 0.6005) of 20.46 ± 0.27 mN/m, a surface tension liquid-gas (303.15 K, x2 = 0.7067) of 19.98 ± 0.27 mN/m and a surface tension liquid-gas (303.15 K, x2 = 0.8043) of 19.58 ± 0.27 mN/m. The surface tension liquid-gas (303.15 K, x2 = 0.9047) was 19.22 ± 0.26 mN/m, the surface tension liquid-gas (303.15 K, x2 = 0.9486) was 19.14 ± 0.26 mN/m and the mass density (303.15 K, x2 = 0.0514) was 811.7 ± 0.47 kg/m3. It also gave a mass density (303.15 K, x2 = 0.1001) of 805.43 ± 0.47 kg/m3, a mass density (303.15 K, x2 = 0.2015) of 792.09 ± 0.49 kg/m3 and a mass density (303.15 K, x2 = 0.3082) of 777.49 ± 0.51 kg/m3. The mass density (303.15 K, x2 = 0.4054) was 763.85 ± 0.53 kg/m3, the mass density (303.15 K, x2 = 0.517) was 747.87 ± 0.55 kg/m3 and the mass density (303.15 K, x2 = 0.6305) was 731.38 ± 0.58 kg/m3. The mass density (303.15 K, x2 = 0.7114) was 719.37 ± 0.59 kg/m3, the mass density (303.15 K, x2 = 0.8136) was 703.84 ± 0.61 kg/m3 and the mass density (303.15 K, x2 = 0.9061) was 689.61 ± 0.63 kg/m3. The mass density (303.15 K, x2 = 0.9518) was 682.59 ± 0.64 kg/m3, the surface tension liquid-gas (308.15 K, x2 = 0.0562) was 24.54 ± 0.29 mN/m and the surface tension liquid-gas (308.15 K, x2 = 0.1017) was 24.05 ± 0.29 mN/m. For the same molecule, the surface tension liquid-gas (308.15 K, x2 = 0.2078) was 22.86 ± 0.28 mN/m, the surface tension liquid-gas (308.15 K, x2 = 0.3065) was 21.92 ± 0.28 mN/m and the surface tension liquid-gas (308.15 K, x2 = 0.4117) was 21.11 ± 0.27 mN/m. The surface tension liquid-gas (308.15 K, x2 = 0.5064) was 20.53 ± 0.27 mN/m, the surface tension liquid-gas (308.15 K, x2 = 0.6065) was 20 ± 0.27 mN/m and the surface tension liquid-gas (308.15 K, x2 = 0.7081) was 19.61 ± 0.27 mN/m. It also gave a surface tension liquid-gas (308.15 K, x2 = 0.8) of 19.27 ± 0.26 mN/m, a surface tension liquid-gas (308.15 K, x2 = 0.9028) of 18.88 ± 0.26 mN/m and a surface tension liquid-gas (308.15 K, x2 = 0.9483) of 18.82 ± 0.26 mN/m. The mass density (308.15 K, x2 = 0.0514) was 808.16 ± 0.47 kg/m3, the mass density (308.15 K, x2 = 0.1001) was 801.85 ± 0.48 kg/m3 and the mass density (308.15 K, x2 = 0.2015) was 788.43 ± 0.5 kg/m3. For the same molecule, the mass density (308.15 K, x2 = 0.3082) was 773.75 ± 0.52 kg/m3, the mass density (308.15 K, x2 = 0.4054) was 760.1 ± 0.54 kg/m3 and the mass density (308.15 K, x2 = 0.517) was 743.94 ± 0.56 kg/m3. For the same molecule, the mass density (308.15 K, x2 = 0.6305) was 727.36 ± 0.58 kg/m3, the mass density (308.15 K, x2 = 0.7114) was 715.28 ± 0.6 kg/m3 and the mass density (308.15 K, x2 = 0.8136) was 699.65 ± 0.62 kg/m3. For the same molecule, the mass density (308.15 K, x2 = 0.9061) was 685.35 ± 0.64 kg/m3 and the mass density (308.15 K, x2 = 0.9518) was 678.3 ± 0.65 kg/m3.
